Assay results as given in patent US11376264B2, “Use of bromodomain-containing protein 9 antagonists in combination with vitamin D receptor agonists in diabetes treatment” (Salk Institute for Biological Studies, priority 2017, dated 2022).
Entries after “also recorded” stand apart in the source; their conditions may differ.

What was measured:
INS1 cells = assay: H3K27Ac ChIP-seq enhancer landscape in IL1β-treated INS1 cells; type: cell-based, rat; settings: 1 hour IL1β
Source text: The experimental procedure for ChIP was as previously described (Barish et al., 2010, Genes Dev 24:2760-5). Briefly, after fixation, nuclei from were isolated, lysed, and sheared with a Diagenode Bioruptor to yield DNA fragment sizes of 200-1,000 bp followed by immunoprecipitation.
The procedure was as previously described (Barish et al., 2010, Genes Dev 24:2760-5). Briefly, short DNA reads were aligned against the mouse mm9 or rat rn4 reference genome using the Illumina CASAVA v1.8.2. Reads were aligned using the Bowtie aligner, allowing up to two mismatches in the read. Only tags that map uniquely to the genome were considered for further analysis. Subsequent peak calling and motif analysis were conducted using HOMER, a software suite for ChIP-seq analysis. The methods for HOMER, described below, have been implemented and are available at http://homer.ucsd.edu. One tag from each unique position was considered to eliminate peaks resulting from clonal amplification of fragments during the ChIP-seq protocol. Peaks were identified by searching for clusters of tags within a sliding 200 bp window, requiring adjacent clusters to be at least 1 kb away from each other. The threshold for the number of tags that determine a valid peak was selected for an FDR <0.001, as empirically determined by repeating the peak finding procedure using randomized tag positions. […]

[1] = test system: low-dose STZ-treated mice; assay: Low-dose STZ β cell damage mouse model; type: in vivo; settings: for glucose control (overnight fasted glucose): i.p. 3 times a week; for serum insulin levels: mouse, in vivo
Procedure: 8 week old C57B16 male mice were injected intraperitoneally with streptozotocin (Sigma, S0130) at the dose of 50 mg/kg every day for 5 consecutive days.
For immunohistochemistry, FFPE tissues sections were deparaffinized and antigen retrieval performed using Vector Antigen Unmasking buffer (H3301). VectaStain ABC kit and ImmPACT DAB substrate (Vector Lab) were used to develop signal. Antibodies used: Pro-insulin (R&D, MAB13361, 1:100), insulin (Abcam, ab7842, 1:100), MAFA (Novus, NB400-137, 1:50), NKX6-1 (Cell Signaling, 54551, 1:100), and Glucagon (Abcam, ab82270, 1:100). DAPI-containing mounting media ([…] mounting medium for fluorescence) was used for nuclear staining. Immunostaining was visualized by ZEISS 780 confocal microscopy analysis.
(§1) Intraperitoneal GTTs were performed on overnight fasted mice. Blood glucose values were assessed before and at 0, 15, 30, 60, and 120 min after i.p. administration of 0.5 g/kg of glucose. Serum insulin levels were assessed before and at 0, 15, and 60 min after the i.p. administration of glucose using a rat/mouse Insulin ELISA kit (Millipore). IP-ITT assays were performed on mice after a 6 hr fast with an injection of 2 U/kg of insulin (Humalin R, Eli Lilly).

db/db (B6) mice = assay: db/db (B6) mouse T2D model treatment; type: in vivo; settings: for fasted blood glucose levels: Cal 60 μg/kg, iBRD9 10 mg/kg i.p. 3 times a week, 9 weeks; for serum insulin levels: FIG. 10D, fasting / random fed
Procedure: The following mice strains were from Jackson: VDR KO (B6.129S4-Vdrtm1Mbd/J), B6 db (B6.BKS(D)-Leprdb/J), BKS db (BKS.Cg-Dock7m+/+ Leprdb/J), C57BL6/J. Animals were maintained in a specific pathogen-free animal facility on a 12-hr light-dark cycle at an ambient temperature of 23° C. Water and food were provided ad lib. All animal experiments used age-matched male mice. VDR KO and control littermate mice were maintained on a VDR KO rescue diet containing 21% calcium, 0.67% phosphorus, and 20% lactose supplemented with 4.4 U vitamin D per gram diet.
db/db (B6) mice were grouped based on glucose levels at the age of 5 weeks. Treatments were started from 6 weeks and animals were treated with vehicle (30% 2-Hydroxypropyl-β Cyclodextrin, Sigma, H-107) or drugs 3 times a week. […] For db/db (BKS) mice, treatment started from age of 10 weeks.
as §1
ELISA were performed per manufacturer's instructions: mouse insulin (Millipore, EZRMI-13K), mouse proinsulin (Mercodia, NC9088881).

VDR-PCAF interaction = assay: Immunoprecipitation of endogenous PCAF with HA-VDR in INS1 cells; type: cell-based, rat; settings: INS1 cells expressing HA-VDR, 1 hr after treatment
Procedure: Immunoprecipitations were performed as described previously (He et al., 2010, Mol. Cell 38, 428-38). Briefly, cells are lysed using ice-cold lysis buffer (HEPES 20 mM pH8, EDTA 0.2 mM, NaCl 0.3 mM, NP40 0.5%, 15% glycerol) for 15 min, and after centrifuging the supernatant was collected. For HA- or Flag-tagged proteins, immunoprecipitations were performed using HA-magnetic beads (Pierce, P188836), or Flag-magnetic beads (Sigma, M8823) for 1.5 hr at 4° C. For other immunoprecipitations, primary antibodies were incubated with lysates for 2 hr followed by Protein A magnetic beads (Life Technologies, 10001D). After 3 washes with wash buffer (HEPES 10 mM pH8, EDTA 0.2 mM, NaCl 0.3 mM, NP40 0.1%, 15% glycerol), the beads were boiled with NuPage LDS sample buffer and the lysates were stored at −20° C.

SMILES	reversal of IL1β-induced changes in H3K27 acetylation (INS1 cells)	glucose control (overnight fasted glucose) [1]	serum insulin levels [1]	fasted blood glucose levels (db/db (B6) mice)	serum insulin levels (db/db (B6) mice)	PCAF binding to VDR (VDR-PCAF interaction)	cytokine and chemokine genes in islets (db/db (B6) mice; RNA-seq of islets)	key transcription factors (Nkx6-1, Nr4a1) in islets (db/db (B6) mice; RNA-seq of islets)	Cyp24A1 expression in islets and intestine (db/db (B6) mice; VDR target gene)	glucose tolerance (IPGTT) (db/db (B6) mice; after 9 weeks treatment)	Ins2 mRNA levels in islets (db/db (B6) mice; qPCR)	expression of gluconeogenesis genes (Pepck, Fbp1, G6pase) in liver (db/db (B6) mice; qPCR)
CCn1cc(-c2cccc(C(F)(F)F)c2)c2sc(C(=N)NC3CCS(=O)(=O)CC3)cc2c1=O [iBRD9]	partially reverse the impact of IL1β	limited to no benefit	increased levels of insulin	modest improvements	higher fasting serum insulin levels	increased	–	–	–	–	–	–
C=C1/C(=C\C=C2/CCC[C@]3(C)[C@@H]([C@H](C)/C=C/[C@@H](O)C4CC4)CC[C@@H]23)C[C@@H](O)C[C@@H]1O [Cal, calcipotriol]	partially reverse the impact of IL1β	limited to no benefit	increased levels of insulin	modest improvements; also recorded: mildly reduces	higher fasting serum insulin levels	increased	downregulated	upregulation	marked induction	improved glucose clearance; also recorded: better glucose tolerance	trended upwards; also recorded: increased expression of Ins2	reduced expression; also recorded: repressed
